“And” between values parts separate entries of the source, which are not always exact repeats. Identical values can stand only once. Toxic doses and inconclusive results are not listed.
Test system: BDF1 mice, P388 leukemia ip, median survival T/C
Test: NCI In Vivo Anticancer Drug Screen. Data for tumor model P388 Leukemia (intraperitoneal) in B6D2F1 (BDF1) mice
Settings: endpoint: median survival time, higher = longer survival
In short: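 Reported as T/C, where T is the survival measurement in dosed animals and C the same measurement in vehicle controls.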

[1] = dose: 25.0 mg/kg/injection, schedule: Q04DX003 (ip), vehicle: Klucel (hydroxypropylcellulose) (HPC)
[2] = dose: 50.0 mg/kg/injection, schedule: Q04DX003 (ip), vehicle: Klucel (hydroxypropylcellulose) (HPC)
[3] = dose: 100.0 mg/kg/injection, schedule: Q04DX003 (ip), vehicle: Klucel (hydroxypropylcellulose) (HPC)
[4] = dose: 100.0 mg/kg/injection, schedule: Q04DX003 (ip), vehicle: saline with Tween-80
[5] = dose: 200.0 mg/kg/injection, schedule: Q04DX003 (ip), vehicle: saline with Tween-80
[6] = dose: 400.0 mg/kg/injection, schedule: Q04DX003 (ip), vehicle: saline with Tween-80
[7] = dose: 100.0 mg/kg/injection, schedule: Q01DX009 (ip), vehicle: Klucel (hydroxypropylcellulose) (HPC)
[8] = dose: 200.0 mg/kg/injection, schedule: Q04DX003 (ip), vehicle: Klucel (hydroxypropylcellulose) (HPC)
[9] = dose: 400.0 mg/kg/injection, schedule: Q01DX009 (ip), vehicle: Klucel (hydroxypropylcellulose) (HPC)
[10] = dose: 100.0 mg/kg/injection, schedule: Q01DX009 (ip), vehicle: saline with Tween-80
[11] = dose: 200.0 mg/kg/injection, schedule: Q01DX009 (ip), vehicle: saline with Tween-80
[12] = dose: 100.0 mg/kg/injection, schedule: Q04DX003 (ip), vehicle: saline
[13] = dose: 200.0 mg/kg/injection, schedule: Q01DX009 (ip), vehicle: Klucel (hydroxypropylcellulose) (HPC)
[14] = dose: 25.0 mg/kg/injection, schedule: Q01DX009 (ip), vehicle: saline with Tween-80
[15] = dose: 50.0 mg/kg/injection, schedule: Q01DX009 (ip), vehicle: saline with Tween-80

Cc1sc([N+](=O)[O-])cc1[N+](=O)[O-]
T/C [1]: 91 % of control
T/C [2]: 95 % of control
T/C [3]: 91 % of control

COc1cccc(CC(=O)NCCc2ccc(OC)c(OC)c2)c1
T/C [4]: 100 % of control
T/C [5]: 90 % of control
T/C [6]: 100 % of control

NOCc1c(F)c(F)c(F)c(F)c1F
T/C (dose: 50.0 mg/kg/injection, schedule: Q01DX001 (ip), vehicle: saline): 113 % of control
T/C (dose: 100.0 mg/kg/injection, schedule: Q01DX001 (ip), vehicle: saline): 104 % of control
T/C (dose: 200.0 mg/kg/injection, schedule: Q01DX001 (ip), vehicle: saline): 95 % of control

CCOC(=O)c1cc(C(=O)OCC)c(C#N)c(=O)[nH]1
T/C [7]: 96 % of control
T/C [3]: 91 % of control
T/C [8]: 91 % of control
T/C [9]: 92 % of control
T/C (dose: 400.0 mg/kg/injection, schedule: Q04DX003 (ip), vehicle: Klucel (hydroxypropylcellulose) (HPC)): 100 % of control

CC(=O)N(C)c1ccc(/C=C2\C=Cc3ccccc32)cc1
T/C [10]: 100 % of control
T/C [4]: 90 % of control
T/C [11]: 95 % of control
T/C [5]: 100 % of control

COC(=O)C(CCC(=O)O)NC(=O)OCc1ccccc1 (centres undefined)
T/C [1]: 104 % of control
T/C [2]: 113 % of control
T/C [3]: 95 % of control and 109 % of control

CC1(C)O[Se](=O)OC1(C)C
T/C (dose: 6.25 mg/kg/injection, schedule: Q04DX003 (ip), vehicle: saline): 100 % of control

CCn1c(O)c(C=N)c(=O)n(CC)c1=O
T/C (dose: 25.0 mg/kg/injection, schedule: Q01DX009 (ip), vehicle: saline): 100 % of control
T/C (dose: 25.0 mg/kg/injection, schedule: Q04DX003 (ip), vehicle: saline): 96 % of control
T/C (dose: 50.0 mg/kg/injection, schedule: Q01DX009 (ip), vehicle: saline): 104 % of control
T/C (dose: 50.0 mg/kg/injection, schedule: Q04DX003 (ip), vehicle: saline): 100 % of control
T/C [12]: 103 % of control

COC(=O)[C@@H]1[C@H](O)[C@H](C)[C@H](O)[C@H](C)/C=C\C=C(C)C(=O)Nc2c(C)c(OC(C)=O)c3c(c2O)C(=O)C(C)=C2OCOC(=C23)C(C)=C[C@@](C)(O)[C@H](O)[C@@H](C)[C@H]1OC(C)=O
T/C (dose: 50.0 mg/kg/injection, schedule: Q01DX009 (ip), vehicle: saline + alcohol): 95 % of control
T/C [7]: 106 % of control
T/C (dose: 100.0 mg/kg/injection, schedule: Q01DX009 (ip), vehicle: saline + alcohol): 99 % of control
T/C [13]: 116 % of control and 123 % of control
T/C (dose: 200.0 mg/kg/injection, schedule: Q01DX009 (ip), vehicle: saline + alcohol): 95 % of control
T/C [9]: 115 % of control
T/C (dose: 400.0 mg/kg/injection, schedule: Q01DX009 (ip), vehicle: saline + alcohol): 100 % of control

O=C1C=CCCCC1
T/C [14]: 109 % of control
T/C (dose: 25.0 mg/kg/injection, schedule: Q04DX003 (ip), vehicle: saline with Tween-80): 103 % of control
T/C [15]: 109 % of control and 112 % of control
T/C (dose: 50.0 mg/kg/injection, schedule: Q04DX003 (ip), vehicle: saline with Tween-80): 88 % of control
T/C [10]: 104 % of control
T/C [4]: 100 % of control

CC1(C(N)=O)CCCC2(C)c3ccccc3CCC12 (centres undefined)
T/C [4]: 100 % of control
T/C [5]: 104 % of control
T/C [6]: 100 % of control

CC1B(O)Nc2nc(=S)[nH]c(N)c21 (centres undefined)
T/C (dose: 50.0 mg/kg/injection, schedule: Q04DX003 (ip), vehicle: saline sonified): 100 % of control
T/C (dose: 100.0 mg/kg/injection, schedule: Q04DX003 (ip), vehicle: saline sonified): 100 % of control
T/C (dose: 200.0 mg/kg/injection, schedule: Q04DX003 (ip), vehicle: saline sonified): 100 % of control

C=C1C(C)C2C(Cc3ccccc3)NC(=O)C23C(OC(C)=O)C=CC(C)(O)C(=O)C(C)C/C=C/C3C1O (centres undefined)
T/C (dose: 0.62 mg/kg/injection, schedule: Q01DX009 (ip), vehicle: saline with Tween-80): 104 % of control
T/C (dose: 1.25 mg/kg/injection, schedule: Q01DX009 (ip), vehicle: saline with Tween-80): 110 % of control
T/C (dose: 1.6 mg/kg/injection, schedule: Q01DX009 (ip), vehicle: saline): 157 % of control
T/C (dose: 2.5 mg/kg/injection, schedule: Q01DX009 (ip), vehicle: saline): 172 % of control

CC(/C=N/N=C(N)N)=N\N=C(N)N
T/C (dose: 40.0 mg/kg/injection, schedule: Q01DX009 (ip), vehicle: water): 86 % of control
T/C (dose: 60.0 mg/kg/injection, schedule: Q01DX010 (ip), vehicle: water): 88 % of control

CC(=O)OC1CCCc2c1nc1ccccc1[n+]2[O-] (centres undefined)
T/C [15]: 88 % of control
T/C [10]: 100 % of control
T/C [11]: 96 % of control

CC(=O)OCC(Br)C(Br)COC(C)=O (centres undefined)
T/C [10]: 109 % of control
T/C [11]: 109 % of control
T/C (dose: 400.0 mg/kg/injection, schedule: Q01DX009 (ip), vehicle: saline with Tween-80): 109 % of control

O=C1CC(c2ccc(O)cc2)CC(=O)C1C(C1CC=CCC1)N(CCCl)CCCl (centres undefined)
T/C [3]: 109 % of control and 87 % of control
T/C [8]: 120 % of control

Cc1cccc(NC(=O)c2ccccc2)n1
T/C (dose: 12.5 mg/kg/injection, schedule: Q01DX009 (ip), vehicle: saline with Tween-80): 91 % of control
T/C [14]: 91 % of control
T/C [15]: 104 % of control

CCC12C=CCN3CCC4(c5ccc(OC)cc5N(C)C4C(O)(C(=O)OC)C1OC(C)=O)C32 (centres undefined) (tested in a mixture with another compound)
T/C (dose: 0.06 mg/kg/injection, schedule: Q01DX009 (ip), vehicle: water): 86 % of control and 95 % of control
T/C (dose: 0.12 mg/kg/injection, schedule: Q01DX009 (ip), vehicle: water): 90 % of control
T/C (dose: 0.25 mg/kg/injection, schedule: Q01DX009 (ip), vehicle: water): 86 % of control and 104 % of control
T/C (dose: 0.5 mg/kg/injection, schedule: Q01DX009 (ip), vehicle: water): 90 % of control
T/C (dose: 1.0 mg/kg/injection, schedule: Q01DX009 (ip), vehicle: water): 86 % of control and 90 % of control
T/C (dose: 2.0 mg/kg/injection, schedule: Q01DX009 (ip), vehicle: water): 100 % of control and 90 % of control

CC(=O)OC(C)(C)/C=C/C(=O)[C@](C)(O)[C@H]1[C@H](O)C[C@@]2(C)[C@@H]3CC=C4[C@@H](C[C@H](O)[C@H](O)C4(C)C)[C@]3(C)C(=O)C[C@]12C
T/C (dose: 80.0 mg/kg/injection, schedule: Q01DX010 (ip), vehicle: saline): 109 % of control
T/C (dose: 120.0 mg/kg/injection, schedule: Q01DX010 (ip), vehicle: saline): 122 % of control
T/C (dose: 180.0 mg/kg/injection, schedule: Q01DX010 (ip), vehicle: saline): 118 % of control

CC(CS(=O)(=O)O)N1CCOCC1 (centres undefined)
T/C (dose: 100.0 mg/kg/injection, schedule: Q01DX009 (ip), vehicle: saline): 91 % of control
T/C [12]: 104 % of control
T/C (dose: 200.0 mg/kg/injection, schedule: Q01DX009 (ip), vehicle: saline): 104 % of control
T/C (dose: 200.0 mg/kg/injection, schedule: Q04DX003 (ip), vehicle: saline): 100 % of control
T/C (dose: 400.0 mg/kg/injection, schedule: Q04DX003 (ip), vehicle: saline): 95 % of control

Cc1ccc(C2NC(=S)N3C(c4ccc(C)cc4)NC(=S)N23)cc1 (centres undefined)
T/C (dose: 50.0 mg/kg/injection, schedule: Q01DX009 (ip), vehicle: Klucel (hydroxypropylcellulose) (HPC)): 98 % of control
T/C [7]: 111 % of control
T/C [13]: 111 % of control
T/C [9]: 154 % of control
T/C (dose: 400.0 mg/kg/injection, schedule: Q01DX009 (ip), vehicle: saline): 112 % of control
T/C (dose: 600.0 mg/kg/injection, schedule: Q01DX009 (ip), vehicle: saline): 120 % of control

CO[C@H]1C[C@](C)(O)Cc2cc3c(c(O)c21)C(=O)c1c(O)cc2c(c1C3=O)O[C@@H]1O[C@@]2(C)[C@H](O)[C@@H](N(C)C)[C@@H]1O
T/C (dose: 18.0 mg/kg/injection, schedule: Q04DX003 (ip), vehicle: lactate): 228 % of control
T/C (dose: 30.0 mg/kg/injection, schedule: Q04DX003 (ip), vehicle: lactate): 271 % of control
T/C (dose: 50.0 mg/kg/injection, schedule: Q04DX003 (ip), vehicle: lactate): 107 % of control

S=P(S)(c1ccccc1)c1ccccc1
T/C (dose: 80.5 mg/kg/injection, schedule: Q01DX009 (ip), vehicle: saline): 90 % of control
T/C (dose: 106.26 mg/kg/injection, schedule: Q01DX009 (ip), vehicle: saline): 116 % of control
T/C (dose: 241.5 mg/kg/injection, schedule: Q01DX009 (ip), vehicle: saline): 95 % of control

Source: PubChem BioAssay AID328 (DTP/NCI, 2004)
